Earlier results on 2 compounds are cited in paper PMC9834611 (Pharmacology Research & Perspectives, 2023).

For data set [1] the following is noted: cited from earlier work.
For data set [2], the system named is CYP3A4. Details: method as in PMID 25141173. Particulars: cited from earlier work.
Data set [3] has as its system ABCB1. Details: method as in PMID 11770010. The conditions noted are these: Caco‐2 cell lines; cited from earlier work.

For `CC[C@]1(O)C[C@@H]2CN(CCc3c([nH]c4ccccc34)[C@@](C(=O)OC)(c3cc4c(cc3OC)N(C)[C@H]3[C@@](O)(C(=O)OC)[C@H](O)[C@]5(CC)C=CCN6CC[C@]43[C@@H]65)C2)C1` [4‐deacetylvinblastine], in data set [1], the “LD50 compared with parent VBL” value is “lower than that of the parent”.

As for `COc1ccc2[nH]c([S+]([O-])Cc3ncc(C)c(OC)c3C)nc2c1` (stereo not shown) [Omeprazole], the “increase in CYP3A4 mRNA expression” value in data set [2] is recorded as “twofold”. Also, the “effect on CYP3A4” value in data set [2] (human hepatocytes) is listed as “inducer”. For the same compound, the “effect on ABCB1” value in data set [3] is “inhibitor”.
